Measured values from paper PMC11956013, “Structure–Activity Relationships and Evaluation of 2-(Heteroaryl-cycloalkyl)-1H-indoles as Tauopathy Positron Emission Tomography Radiotracers” (Journal of Medicinal Chemistry, 2025).

Experiments:
Ca2+ channel (N) = type: binding
cathepsin B (h) = molecular target: T1, cathepsin B (h) (Homo sapiens, UniProt P07858); assay: Eurofins panel: cathepsin B (h) enzymatic activity; type: biochemical; conditions: 1.0E-05 M; cathepsin B (h)
T1 construct: Eurofins (panel run by the vendor)

M4 (h) = M4 (h) (Homo sapiens, UniProt P08173); assay: M4 (h) (antagonist radioligand), Eurofins assay 96
Chain of M4 (h) (P08173 whole entry): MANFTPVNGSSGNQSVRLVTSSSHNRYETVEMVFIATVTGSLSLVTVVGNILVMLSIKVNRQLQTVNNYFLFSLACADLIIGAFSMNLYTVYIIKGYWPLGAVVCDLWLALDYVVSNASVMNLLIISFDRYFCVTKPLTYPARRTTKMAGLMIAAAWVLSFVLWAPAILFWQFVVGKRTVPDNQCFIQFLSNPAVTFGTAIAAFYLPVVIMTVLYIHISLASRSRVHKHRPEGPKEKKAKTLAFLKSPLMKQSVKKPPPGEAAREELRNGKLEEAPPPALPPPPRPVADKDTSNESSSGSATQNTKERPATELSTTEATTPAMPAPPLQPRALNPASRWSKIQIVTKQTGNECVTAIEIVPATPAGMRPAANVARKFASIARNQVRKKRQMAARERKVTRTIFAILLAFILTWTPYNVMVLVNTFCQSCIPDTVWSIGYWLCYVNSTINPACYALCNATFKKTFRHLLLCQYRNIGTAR

5-HT1A (h) = 5-HT1A (h) (Homo sapiens, UniProt P08908); conditions: 1.0E-05 M; 5-HT1A (h) (agonist radioligand)
Chain of 5-HT1A (h) (P08908 whole entry): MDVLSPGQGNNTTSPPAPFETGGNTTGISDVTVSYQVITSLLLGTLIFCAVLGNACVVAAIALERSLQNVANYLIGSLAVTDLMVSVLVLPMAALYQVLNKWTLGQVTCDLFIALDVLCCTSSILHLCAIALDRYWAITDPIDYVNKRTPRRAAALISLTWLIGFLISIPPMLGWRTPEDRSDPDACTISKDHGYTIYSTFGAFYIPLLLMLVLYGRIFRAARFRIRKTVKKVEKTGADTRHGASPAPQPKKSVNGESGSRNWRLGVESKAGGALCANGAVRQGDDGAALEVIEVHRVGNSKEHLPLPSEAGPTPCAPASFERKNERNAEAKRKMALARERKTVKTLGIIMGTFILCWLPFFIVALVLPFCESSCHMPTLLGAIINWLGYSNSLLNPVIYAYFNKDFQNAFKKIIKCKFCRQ

NK1 (h) = NK1 (h) (Homo sapiens, UniProt P25103); conditions: compound concentration 1.0E-05 M
Chain of NK1 (h) (P25103 whole entry): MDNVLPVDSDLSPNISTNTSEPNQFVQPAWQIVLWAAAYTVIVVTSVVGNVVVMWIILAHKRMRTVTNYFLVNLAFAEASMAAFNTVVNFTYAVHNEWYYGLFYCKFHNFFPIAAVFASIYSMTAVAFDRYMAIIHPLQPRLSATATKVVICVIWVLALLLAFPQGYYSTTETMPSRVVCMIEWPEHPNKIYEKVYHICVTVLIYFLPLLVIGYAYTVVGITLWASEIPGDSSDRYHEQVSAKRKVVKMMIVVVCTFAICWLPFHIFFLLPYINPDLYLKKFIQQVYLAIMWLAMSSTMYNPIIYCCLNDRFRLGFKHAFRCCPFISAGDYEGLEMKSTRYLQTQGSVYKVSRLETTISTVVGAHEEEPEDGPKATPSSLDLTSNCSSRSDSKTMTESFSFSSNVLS

5-HT transporter (h) = 5-HT transporter (h) (Homo sapiens, UniProt P31645); assay: Eurofins panel: 5-HT transporter (h) (antagonist radioligand); conditions: 1.0E-05 M
5-HT2C (h) = molecular target: T2, 5-HT2C (h) (Homo sapiens, UniProt P28335); assay: Eurofins panel: 5-HT2C (h) (agonist radioligand); type: binding; conditions: 1.0E-05 M; 5-HT2C (h) (agonist radioligand)
T2 construct: purchased Eurofins (contract screening, CNS SafetyScreen panel)
T2 sequence (P28335 33-458): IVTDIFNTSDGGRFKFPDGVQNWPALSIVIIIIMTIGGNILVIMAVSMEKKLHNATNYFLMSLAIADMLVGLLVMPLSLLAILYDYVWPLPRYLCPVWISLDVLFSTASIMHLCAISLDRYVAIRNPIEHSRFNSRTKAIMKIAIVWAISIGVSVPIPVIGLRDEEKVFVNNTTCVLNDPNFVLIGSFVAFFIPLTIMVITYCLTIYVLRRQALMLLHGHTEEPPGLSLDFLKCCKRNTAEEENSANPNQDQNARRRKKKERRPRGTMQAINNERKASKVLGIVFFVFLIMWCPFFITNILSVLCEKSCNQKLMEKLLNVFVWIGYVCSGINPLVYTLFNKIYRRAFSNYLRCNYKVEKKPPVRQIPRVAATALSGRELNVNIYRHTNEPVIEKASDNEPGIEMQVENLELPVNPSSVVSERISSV

TNF-alpha (h) = conditions: compound concentration 1.0E-05 M
D2L (h) = D2L (h) (Homo sapiens, UniProt P14416); assay: biochemical
alpha2C (h) = alpha2C (h) (Homo sapiens, UniProt P18825); conditions: 1.0E-05 M; alpha2C (h) (antagonist radioligand)
Chain of alpha2C (h) (P18825 whole entry): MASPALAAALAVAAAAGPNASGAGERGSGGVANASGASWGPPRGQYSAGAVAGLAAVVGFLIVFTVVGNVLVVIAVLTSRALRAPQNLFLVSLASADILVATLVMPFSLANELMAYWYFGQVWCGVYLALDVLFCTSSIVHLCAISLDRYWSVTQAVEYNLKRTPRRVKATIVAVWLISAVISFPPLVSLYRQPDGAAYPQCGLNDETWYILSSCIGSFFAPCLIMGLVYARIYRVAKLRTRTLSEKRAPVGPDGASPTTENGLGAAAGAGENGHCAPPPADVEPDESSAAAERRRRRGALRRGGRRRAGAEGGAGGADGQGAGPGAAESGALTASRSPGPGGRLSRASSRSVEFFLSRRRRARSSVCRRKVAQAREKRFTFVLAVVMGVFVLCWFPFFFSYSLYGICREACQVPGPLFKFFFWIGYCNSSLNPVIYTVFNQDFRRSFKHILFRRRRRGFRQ

D4.4 (h) = D4.4 (h) (Homo sapiens, UniProt P21917); assay: biochemical
Chain of D4.4 (h) (P21917 whole entry): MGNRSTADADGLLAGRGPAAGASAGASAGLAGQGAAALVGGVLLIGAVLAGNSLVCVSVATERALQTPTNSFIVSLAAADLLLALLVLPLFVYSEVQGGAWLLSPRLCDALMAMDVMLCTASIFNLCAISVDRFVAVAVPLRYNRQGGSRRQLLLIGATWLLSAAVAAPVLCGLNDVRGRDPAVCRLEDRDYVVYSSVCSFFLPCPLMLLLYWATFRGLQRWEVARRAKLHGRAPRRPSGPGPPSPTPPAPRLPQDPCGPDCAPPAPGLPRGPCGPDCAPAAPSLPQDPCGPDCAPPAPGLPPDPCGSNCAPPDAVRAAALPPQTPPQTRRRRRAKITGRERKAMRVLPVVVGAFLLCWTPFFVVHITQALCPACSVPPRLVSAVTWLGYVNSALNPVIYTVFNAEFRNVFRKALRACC

[1] = molecular target: human monoamine oxidase-B (MAO-B) (Homo sapiens, UniProt P27338); assay: biochemical
human 5-HT2B = molecular target: T3, human 5-HT2B (Homo sapiens, UniProt P41595); assay: Eurofins CNS SafetyScreen panel: 5-HT2B (vs ± DOI); type: binding
T3 construct: purchased Eurofins (contract screening, CNS SafetyScreen panel)
T3 sequence (P41595 whole entry): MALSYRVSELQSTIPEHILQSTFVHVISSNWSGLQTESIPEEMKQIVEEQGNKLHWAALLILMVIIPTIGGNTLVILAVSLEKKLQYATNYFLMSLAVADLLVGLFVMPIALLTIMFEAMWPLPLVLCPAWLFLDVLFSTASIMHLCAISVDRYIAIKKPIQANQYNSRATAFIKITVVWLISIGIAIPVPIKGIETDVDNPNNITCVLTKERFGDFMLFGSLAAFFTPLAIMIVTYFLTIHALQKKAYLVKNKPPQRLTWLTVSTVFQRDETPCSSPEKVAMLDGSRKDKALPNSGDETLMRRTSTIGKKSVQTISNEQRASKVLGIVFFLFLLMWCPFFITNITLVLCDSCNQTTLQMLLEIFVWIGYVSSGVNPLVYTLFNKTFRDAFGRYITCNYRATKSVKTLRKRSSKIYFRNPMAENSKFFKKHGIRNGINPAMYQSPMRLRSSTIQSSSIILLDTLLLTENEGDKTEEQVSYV

D1 (h) = D1 (h) (Homo sapiens, UniProt P21728); assay: biochemical
OX1 (h) = OX1 (h) (Homo sapiens, UniProt O43613); conditions: compound concentration 1.0E-05 M
N neuronal alpha7 (h) = N neuronal alpha7 (h) (Homo sapiens, UniProt P36544); assay: Eurofins panel: N neuronal alpha7 (h) (antagonist radioligand); conditions: compound concentration 1.0E-05 M
Chain of N neuronal alpha7 (h) (P36544 23-502): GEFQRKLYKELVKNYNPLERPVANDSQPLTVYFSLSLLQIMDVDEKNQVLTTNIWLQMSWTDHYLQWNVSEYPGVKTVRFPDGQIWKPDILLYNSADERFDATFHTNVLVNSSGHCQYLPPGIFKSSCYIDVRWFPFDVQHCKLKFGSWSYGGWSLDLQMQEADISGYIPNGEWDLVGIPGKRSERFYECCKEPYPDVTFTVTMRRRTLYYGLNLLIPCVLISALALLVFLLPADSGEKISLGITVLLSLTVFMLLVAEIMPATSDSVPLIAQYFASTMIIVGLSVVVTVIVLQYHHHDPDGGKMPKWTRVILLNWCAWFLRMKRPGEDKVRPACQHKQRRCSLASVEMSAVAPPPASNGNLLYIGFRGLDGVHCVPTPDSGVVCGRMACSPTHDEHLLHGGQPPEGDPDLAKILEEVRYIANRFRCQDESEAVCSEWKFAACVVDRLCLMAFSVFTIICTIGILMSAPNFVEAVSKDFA

5-HT2A (h) = molecular target: T4, 5-HT2A (h) (Homo sapiens, UniProt P28223); assay: Eurofins panel: 5-HT2A (h) (agonist radioligand); type: binding; conditions: 1.0E-05 M; 5-HT2A (h) (agonist radioligand)
T4 construct: purchased Eurofins (contract screening, CNS SafetyScreen panel)

V1a (h) = V1a (h) (Homo sapiens, UniProt P37288); conditions: compound concentration 1.0E-05 M
acetylcholinesterase (h) = acetylcholinesterase (h) (Homo sapiens, UniProt P22303)
CYP3A = CYP3A (Homo sapiens, UniProt P08684); assay: in vitro; conditions: human liver microsomes, probe midazolam
Chain of CYP3A (P08684 2-503): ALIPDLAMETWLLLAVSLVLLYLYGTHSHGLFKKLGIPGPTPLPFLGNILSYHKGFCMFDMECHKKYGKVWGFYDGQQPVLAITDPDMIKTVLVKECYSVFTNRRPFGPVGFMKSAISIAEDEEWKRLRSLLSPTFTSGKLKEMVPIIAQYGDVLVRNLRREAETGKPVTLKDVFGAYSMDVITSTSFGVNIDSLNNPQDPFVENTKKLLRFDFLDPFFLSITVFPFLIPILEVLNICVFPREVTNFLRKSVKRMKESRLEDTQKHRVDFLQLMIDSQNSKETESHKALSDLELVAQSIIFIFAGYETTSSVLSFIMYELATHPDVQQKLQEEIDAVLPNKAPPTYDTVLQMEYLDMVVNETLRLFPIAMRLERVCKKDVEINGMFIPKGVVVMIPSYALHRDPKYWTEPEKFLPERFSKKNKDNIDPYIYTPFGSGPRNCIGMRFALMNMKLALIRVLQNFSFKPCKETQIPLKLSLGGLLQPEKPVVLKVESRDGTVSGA

[2] = molecular target: MAO-A, human, monoamine oxydase A (Homo sapiens, UniProt P21397); assay: MAO-A, human, monoamine oxydase A, MAO, Enzymatic Assay, Cerep, assay 5108
delta (DOP) (h) = delta (DOP) (h) (Homo sapiens, UniProt P41143); assay: biochemical
Chain of delta (DOP) (h) (P41143 whole entry): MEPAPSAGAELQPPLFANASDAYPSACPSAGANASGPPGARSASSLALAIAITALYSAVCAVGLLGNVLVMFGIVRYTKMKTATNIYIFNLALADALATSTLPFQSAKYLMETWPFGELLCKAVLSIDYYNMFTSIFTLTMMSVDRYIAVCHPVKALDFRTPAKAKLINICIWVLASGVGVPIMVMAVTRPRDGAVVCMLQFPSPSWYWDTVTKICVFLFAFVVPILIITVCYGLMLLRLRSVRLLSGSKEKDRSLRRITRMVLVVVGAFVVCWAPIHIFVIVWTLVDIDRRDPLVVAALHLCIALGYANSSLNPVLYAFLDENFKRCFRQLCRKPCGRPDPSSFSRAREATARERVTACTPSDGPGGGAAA

dopamine transporter (h) = dopamine transporter (h) (Homo sapiens, UniProt Q01959); assay: dopamine transporter (h) (antagonist radioligand), Eurofins assay 52
[3] = molecular target: GABAA1 (h) (alpha1,beta2,gamma2) (Homo sapiens, UniProt P14867+P47870); assay: GABAA1 (h) (alpha1,beta2,gamma2) (agonist radioligand), Eurofins assay 3051
alpha2B (h) = alpha2B (h) (Homo sapiens, UniProt P18089)
CCK2 (CCKB) (h) = CCK2 (CCKB) (h) (Homo sapiens, UniProt P32239); assay: biochemical
mu (MOP) (h) = mu (MOP) (h) (Homo sapiens, UniProt P35372); assay: Eurofins panel: mu (MOP) (h) (agonist radioligand); conditions: compound concentration 1.0E-05 M
Chain of mu (MOP) (h) (P35372 whole entry): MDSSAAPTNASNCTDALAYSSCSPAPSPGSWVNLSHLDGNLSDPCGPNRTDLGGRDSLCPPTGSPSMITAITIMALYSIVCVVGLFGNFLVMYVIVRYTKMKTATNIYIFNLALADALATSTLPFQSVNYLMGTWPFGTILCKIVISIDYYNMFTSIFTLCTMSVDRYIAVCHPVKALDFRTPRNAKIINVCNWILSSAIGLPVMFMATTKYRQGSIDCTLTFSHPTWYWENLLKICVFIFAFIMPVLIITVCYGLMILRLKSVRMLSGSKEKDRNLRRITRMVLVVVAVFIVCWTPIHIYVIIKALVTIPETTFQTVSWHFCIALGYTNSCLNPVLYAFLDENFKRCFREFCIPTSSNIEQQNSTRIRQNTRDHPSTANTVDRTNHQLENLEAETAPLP

PCP = assay: Eurofins panel: PCP (antagonist radioligand); type: binding; conditions: compound concentration 1.0E-05 M
A2A (h) = A2A (h) (Homo sapiens, UniProt P29274); conditions: 1.0E-05 M; A2A (h) (agonist radioligand)
Chain of A2A (h) (P29274 whole entry): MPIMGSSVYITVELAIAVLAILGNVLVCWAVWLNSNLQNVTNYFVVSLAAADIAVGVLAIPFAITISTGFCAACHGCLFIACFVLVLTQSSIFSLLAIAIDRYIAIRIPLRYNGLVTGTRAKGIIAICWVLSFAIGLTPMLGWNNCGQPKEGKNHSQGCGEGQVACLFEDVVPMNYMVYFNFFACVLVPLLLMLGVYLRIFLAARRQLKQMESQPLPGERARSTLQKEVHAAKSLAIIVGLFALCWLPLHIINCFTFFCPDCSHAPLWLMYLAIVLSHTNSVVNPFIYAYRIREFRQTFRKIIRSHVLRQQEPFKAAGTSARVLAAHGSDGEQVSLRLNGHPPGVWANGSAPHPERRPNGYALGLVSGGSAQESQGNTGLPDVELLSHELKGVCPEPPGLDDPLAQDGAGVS

beta1 (h) = beta1 (h) (Homo sapiens, UniProt P08588); conditions: 1.0E-05 M; beta1 (h) (agonist radioligand)

What does the source list for `Fc1nc(N2CCOCC2)ccc1-c1cc2ccccc2[nH]1` [Compound 75, 4-(6-Fluoro-5-(1H-indol-2-yl)pyridin-2-yl)morpholine]?
% Inhibition, Specific binding (Ca2+ channel (N)): -3.62E+00%; % Inhibition, Enzymatic activity (cathepsin B (h)): -8.47E+00%; inhibition at 10 µM (M4 (h)): -20.6%; % Inhibition, Specific binding (5-HT1A (h)): 11.4159%; % Inhibition, Specific binding (NK1 (h)): 21.8946%; % Inhibition, Specific binding (5-HT transporter (h)): -9.53E+00%; % Inhibition, Specific binding (5-HT2C (h)): 5.817%; % Inhibition, Specific binding (TNF-alpha (h)): 0.1083%; inhibition at 10 µM (D2L (h)): -1.3%; % Inhibition, Specific binding (alpha2C (h)): 4.876%; inhibition at 10 µM (D4.4 (h)): 20.4%; inhibition at 10 µM [1]: 61%; % Inhibition, Specific binding (human 5-HT2B; 1.0E-05 M, 5-HT2B (h) (agonist radioligand)): 44.5993%; inhibition at human 5-HT2B (vs ± DOI) (human 5-HT2B; 10-μM concentration): 44.6%; inhibition at 10 µM (D1 (h)): -11.8%; % Inhibition, Specific binding (OX1 (h)): 6.092%; % Inhibition, Specific binding (N neuronal alpha7 (h)): -7.00E+00%; % Inhibition, Specific binding (5-HT2A (h)): 1.045%; % Inhibition, Specific binding (V1a (h)): -8.82E-01%; % Inhibition, Enzymatic activity (acetylcholinesterase (h)): 1.77%; inhibition at 10 µM (CYP3A): -2.45%; inhibition at 10 µM [2]: 3.62%; inhibition at 10 µM (delta (DOP) (h)): -13.7%; inhibition at 10 µM (dopamine transporter (h)): 17.2%; inhibition at 10 µM [3]: 7.7%; % Inhibition, Specific binding (alpha2B (h)): 2.179%; inhibition at 10 µM (CCK2 (CCKB) (h)): 2.96%; % Inhibition, Specific binding (mu (MOP) (h)): -1.17E+00%; % Inhibition, Specific binding (PCP): -3.84E+00%; % Inhibition, Specific binding (A2A (h)): 6.474%; % Inhibition, Specific binding (beta1 (h)): 12.2039%
